Tests used:
[1] = Quantum yield of free probe not reacted with protein tag; assay type: physicochemical
Description: (§1) A probe was mixed with a corresponding HaloTag protein tag to obtain a mixed sample. The final concentration of the probe in the mixed sample was 5 μM and the final concentration of the protein tag was 10 μM. The mixed sample was incubated at 37° C. for 1 hour, and the sample was detected using a fluorescence spectrophotometer.

[2] = system: HaloTag protein tags in different subcellular organelles of Hela cells; experiment: Labeling HaloTag protein tags in different subcellular organelles of Hela cells (Example 90); assay type: cell-based; conditions: 0.2 μM probe, 2 hours, no washing; cytoskeleton, mitochondria, nucleus, Golgi, whole cells, lysosomes
Description: In order to verify that probe 57, probe 59, probe 60, probe 61, probe 62, and probe 63 can be used to label target proteins located in different organelles. Hela cells were used as examples to detect the effect of probes on labeling HaloTag protein tags in different subcellular organelles. Hela cells were implanted 5000 cells per well in 96-well glass-bottom cell culture plates. After 14 hours, lipo2000 kit was used to transfect the plasmids localized by HaloTag protein tags in different organelles. The original culture medium was removed 24 hours after transfection, and the cells were washed twice with a phenol red-free DMEM medium, and incubated for 2 hours in a phenol red-free medium containing 0.2 μM probes, and the effect of cell labelling was detected by imaging using a Leica TCS-8 confocal microscope.

[3] = system: fusion protein CX43-HaloTag; experiment: Tracing assembly of CX43-HaloTag intercellular channels in Hela cells (Example 94); assay type: cell-based; conditions: 2 μM probe, 1 hour, Hela-CX43-HaloTag cells
From the text: To verify that the probe can be used to monitor the assembly and degradation of biomacromolecules in mammalian cells in real time, Hela cells were used as an example to detect the process of tracing, by a probe, the assembly of intercellular protein CX43 to form intercellular channels in mammalian cells. The C-terminus of CX43 gene was fused with HaloTag gene, and a Hela cell line stably expressing the fusion protein CX43-HaloTag was constructed and obtained by lentiviral infection technology. Hela-CX43-HaloTag cell lines were implanted in a 20 mm glass-bottom cell culture dish 10 hours before the probe labeling. When labeling, the probe 61 μM was first diluted to 2 μM with phenol red-free DMEM medium and replaced the original cell culture medium. The cells were incubated in a 37° C. carbon dioxide incubator for 1 hour. Thereafter, the cells were washed twice with fresh phenol red-free DMEM medium, and the unbound probe 61 was removed at intervals of 2 min. Then, a DMEM phenol-free medium containing 1 μM probe 57 was added to label the cells, and a Leica SP8 confocal microscope was used to monitor the fluorescence intensity and position changes of labeled cells at the corresponding fluorescence channels of probe 61 and probe 57 for a long time, which are shown in FIGS. 17A and 17B, respectively. […]

HaloTag protein tag = experiment: Probe mixed with HaloTag protein tag, fluorescence spectrophotometer (Example 86); assay type: biochemical; conditions: 5 μM probe, 10 μM protein tag, 37° C., 1 hour
Description: as §1

[4] = system: HaloTag-IAA17-H2B protein; experiment: Fluorescence change on IAA-induced degradation of HaloTag-IAA17-H2B in Hela cells (Example 93); assay type: cell-based; conditions: 1 μM probe, 1 hour labeling, then IAA-induced protein degradation
Description: In order to verify the correlation between the fluorescent activation of the probe and the presence of protein, the HaloTag protein in mammalian cells was taken as an example, and the AID degradation system in Hela cells was used as an example to detect the fluorescence changes of HaloTag protein binding probes after protein degradation. First, Hela cells were implanted 20,000/cm^2 in a 20 mm glass-bottomed cell culture dish. After 14 hours, pcdna3.1-TIR1 and pcdna3.1-HaloTag-IAA17-H2B plasmids were transfected with lipofectmain2000 transfection reagent from invirtogen. 24 hours after cell transfection, the original cell culture medium was replaced with a phenol red-free DMEM medium containing 1 μM probe 61 to label the cells, and the cell samples were incubated in a 37° C. carbon dioxide incubator for 1 hour. After the labeling was completed, the fluorescence signal of cell labels was detected by imaging using a Leica SP8 laser confocal microscope. Then, indole acetic acid (IAA) was added to induce the degradation of HaloTag-IAA17-H2B protein, and the changes in cell fluorescence during protein degradation were detected. […] When proteins are present, fluorescence is activated, and when proteins are degraded, fluorescence disappears, which can be used to track and monitor the degradation process of target proteins.

Hela-WT cells = experiment: Confocal imaging of Hela-WT cells without protein tag (Example 89); assay type: cell-based; conditions: 5 μM probe, 2 hours, 37° C., confocal microscope
Description: (§2) Hela cells are used as an example to test the labeling effect of compounds in mammalian cells. Hela cells and Hela-WT cells (Hela primitive cell, without a protein tag expressed) stably expressing HaloTag protein tags were planted in 14 mm 96-well glass bottom cell culture plates and stabilized for 10 hours. Probe 57, probe 59, probe 60, probe 61, probe 69, probe 75, probe 76, probe 82 were added to the culture medium and diluted to 5 μM, respectively. The cells were incubated in a 37° C. carbon dioxide incubator for 2 hours, and the fluorescence changes of the labeled cells were detected by imaging with a Leica TPS-8 confocal microscope.

[5] = Viscosity responsiveness: fluorescence intensity in glycerol versus methanol; assay type: physicochemical; conditions: fluorescence intensity in glycerol to that in methanol
In short: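 At 25 °C, with the same dye concentration and excitation wavelength, maximum emission intensity in glycerol was compared with intensity in methanol, giving a ratio. Dye concentrations ranged from 1×10^−7 M to 1×10^−5 M.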

[6] = system: Hela cells stably expressing HaloTag protein tags; experiment: Confocal imaging of labeled Hela cells stably expressing HaloTag protein tags (Example 89); assay type: cell-based; conditions: Homo sapiens, 5 μM probe, 2 hours, 37° C., confocal microscope, read-out: fluorescence signal enhancement in Hela cells expressing the protein tag
Description: as §2

## CN(C)c1cc2sc(/C=C(\C#N)C(=O)NCCOCCOCCCCCCCl)cc2s1 [Probe 61]
[1]
  The quantum yield of the free probe: 0.0012
[2]
  effect of cell labelling of subcellular organelles: clearly display a variety of subcellular organelle structures without washing
[3]
  fluorescent signal in the probe 61 fluorescence channel: long column-shaped specific fluorescent signal between the two cells
HaloTag protein tag
  The quantum yield after binding to Halo-tag: 0.59
HaloTag protein tag; fluorescence activation multiple after binding protein tag
  Fluorescence enhancement: 668
HaloTag protein tag; fluorescence emission wavelength
  Emission/nm: 552 nm
[4]
  fluorescence signal after indoleacetic acid added for 90 min: almost invisible
Hela-WT cells
  fluorescent signal in Hela-WT cells: no corresponding fluorescent signal could be detected
[5]
  ratio: 817
[6]
  fold induction at 5 µM: ~200
